Experimental data from PMC7724566, “Prospects for Clinical Development of Stat5 Inhibitor IST5-002: High Transcriptomic Specificity in Prostate Cancer and Low Toxicity In Vivo” (Cancers, 2020).

Experiments:
TYK2 = TYK2 (Homo sapiens, UniProt P29597); experiment: Cell-based tyrosine phosphorylation of Jak kinases (IP/immunoblot); design: endogenous in cells; host or cells: DU145 and CWR22Pc; settings: 6 µM, 6 h
Description: (§1) Figure 5 Both IST5 and IST5-M suppress dimerization of Stat5 with similar efficacies in prostate cancer cells. (A), IST5 and IST5-M inhibit equally potently dimerization of Stat5 in native-gel-based Stat5 dimerization assay. CWR22Rv1 cells were transfected with STAT5A-eYFP (Stat5 wild type), STAT5A-N642H-eYFP (constitutive activated Stat5 by N642H mutation, as a positive control) or STAT3-eYFP (Stat3 wild type, as a negative control) constructs for 3 days. CWR22Rv1 cells were serum-starved for 16 h, pretreated with vanadate (1 mM) for 2 h, followed by treatment with vehicle, IST5 and IST5-M (1 µM) for 6 h and stimulation with Prl (10 nM) for 1 h. Dimerization of Stat5 was analyzed by detection of the eYFP fluorescence of the native Coomassie gel. (B), IST5 and IST5-M inhibited cytokine-induced dimerization of Stat5 with high efficacy in PC cells. PC-3 cells were co-transfected with pCMV-3Flag-Stat5a, pCMV-3Myc-Stat5a, and pPrlR plasmids. Cells were serum-starved for 16 h, pretreated with IST5, IST5-M or vehicle at indicated concentrations for 2 h, followed by stimulation with Prl (10 nM) for 30 min. Anti-MYC mAb was utilized to immunoprecipitate the MYC-tagged Stat5a and blotted with anti-FLAG mAb or anti-MYC mAb, as indicated. […] (C), densitometric analyses of the Stat5 dimerization data based on co-immunoprecipitations and immunoblotting in (B). […] Prostate cancer cells were treated with IST5 (6 µM) or vehicle for 6 h. Jak1, Jak2, Jak3 and Tyk2 were immunoprecipitated and blotted with anti-phospho-tyrosine, Jak1, Jak2, Jak3 and Tyk2 antibodies. Whole cell lysates (WCL) were immunoblotted for actin. (E), differences in posttranslational modifications were detected between native and recombinant STAT5a using mass spectrometry. Native STAT5a from CWR22Rv1 cells and recombinant STAT5a from E. coli were gel-purified, digested using trypsin, and analyzed by bottom-up mass spectrometry. Native full-length STAT5a (blue) is show with recombinant STAT5A highlighted (red). Sites of acetylation and phosphorylation from the respective sources are noted including two previously published sites of phosphorylation (asterisk).
(§2) Given that IST5 suppresses phosphorylation of Stat5 in PC cells, it is possible that IST5 inhibits the kinase(s) responsible for Stat5 phosphorylation and activation in PC cells. To evaluate if IST5 affects kinase activity in cancer cells, we tested kinase inhibitory activity of IST5 in two custom-tailored panels including 54 relevant kinases (Table 1), including Jak1, Jak2, Jak3, Tyk2, Abl1, Abl2, Lck, Fyn, Src and TrkB/C. In addition, we further tested if IST5 inhibits tyrosine phosphorylation of Jak1, Jak2, Jak3 or Tyk2 using a cell-based assay (Figure 5D), where phosphorylation of the kinase is indicative of enzymatic kinase activity. DU145 and CWR22Rv1 cells were treated with IST5 (6 µM) for 6 h followed by immunoprecipitation of Jak1, Jak2, Jak3 and Tyk2 and immunoblotting with anti-phospho-tyrosine antibody. […] Collectively, these findings indicate that the inhibitory effect of IST5 on Stat5 phosphorylation in cancer cells is not due to inhibition of Jak2 or other key kinases including Jak1, Jak3, Tyk2, Src, Lck, Fyn, TrkB/C, Abl1 or Abl2 (Table 1, Figure 5D).
(§3) Cell pellets were solubilized in the lysis buffer (10 mM Tris-HCl (pH 7.6), 5 mM EDTA, 50 mM sodium chloride, 30 mM sodium pyrophosphate, 50 mM sodium fluoride, 1 mM sodium orthovanadate, 1% Triton X-100, 1 mM phenylmethylsulfonyl fluoride, 5 µg/mL aprotinin, 1 µg/mL pepstatin A and 2 µg/mL leupeptin), and protein concentrations of clarified cell lysates were determined by a simplified Bradford method (Bio-Rad, Hercules, CA, USA). The whole cell lysates were immunoprecipitated with polyclonal antibodies (Table S1) followed by incubation with protein A-Sepharose beads (GE Healthcare, Chicago, IL, USA). […]

JAK1 = JAK1 (Homo sapiens, UniProt P23458); experiment: as above; design: endogenous in cells; host or cells: DU145 and CWR22Pc; settings: 6 µM, 6 h
JAK1, sequence (P23458 whole entry): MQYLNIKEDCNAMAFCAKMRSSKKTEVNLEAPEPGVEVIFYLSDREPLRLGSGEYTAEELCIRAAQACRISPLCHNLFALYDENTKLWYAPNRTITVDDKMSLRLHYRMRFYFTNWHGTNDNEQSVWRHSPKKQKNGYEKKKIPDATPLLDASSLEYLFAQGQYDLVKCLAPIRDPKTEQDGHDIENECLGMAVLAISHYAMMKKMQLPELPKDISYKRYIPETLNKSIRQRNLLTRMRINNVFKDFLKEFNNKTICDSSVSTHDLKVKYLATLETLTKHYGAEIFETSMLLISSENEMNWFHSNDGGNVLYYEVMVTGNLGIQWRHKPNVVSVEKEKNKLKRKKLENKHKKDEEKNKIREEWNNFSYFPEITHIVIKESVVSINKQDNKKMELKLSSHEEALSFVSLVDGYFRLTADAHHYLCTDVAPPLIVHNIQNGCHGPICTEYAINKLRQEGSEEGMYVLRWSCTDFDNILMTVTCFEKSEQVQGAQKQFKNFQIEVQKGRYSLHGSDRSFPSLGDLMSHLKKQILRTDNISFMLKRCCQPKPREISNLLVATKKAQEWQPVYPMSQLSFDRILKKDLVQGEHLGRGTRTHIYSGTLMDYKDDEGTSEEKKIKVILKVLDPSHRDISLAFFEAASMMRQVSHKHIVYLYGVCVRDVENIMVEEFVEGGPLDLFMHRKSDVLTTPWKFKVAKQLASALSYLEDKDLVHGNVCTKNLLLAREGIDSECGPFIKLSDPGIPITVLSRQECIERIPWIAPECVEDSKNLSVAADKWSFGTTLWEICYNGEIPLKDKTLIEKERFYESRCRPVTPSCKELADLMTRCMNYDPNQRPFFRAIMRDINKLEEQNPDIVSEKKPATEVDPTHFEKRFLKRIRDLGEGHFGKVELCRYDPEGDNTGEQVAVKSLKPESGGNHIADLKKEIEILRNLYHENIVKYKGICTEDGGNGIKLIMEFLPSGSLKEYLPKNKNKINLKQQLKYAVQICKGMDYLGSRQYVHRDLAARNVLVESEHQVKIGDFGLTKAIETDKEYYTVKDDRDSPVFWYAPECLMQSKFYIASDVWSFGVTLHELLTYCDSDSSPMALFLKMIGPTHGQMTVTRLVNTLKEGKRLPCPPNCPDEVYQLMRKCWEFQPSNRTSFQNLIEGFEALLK
Description: as §1, §2, §3

TYK2, sequence (P29597 whole entry): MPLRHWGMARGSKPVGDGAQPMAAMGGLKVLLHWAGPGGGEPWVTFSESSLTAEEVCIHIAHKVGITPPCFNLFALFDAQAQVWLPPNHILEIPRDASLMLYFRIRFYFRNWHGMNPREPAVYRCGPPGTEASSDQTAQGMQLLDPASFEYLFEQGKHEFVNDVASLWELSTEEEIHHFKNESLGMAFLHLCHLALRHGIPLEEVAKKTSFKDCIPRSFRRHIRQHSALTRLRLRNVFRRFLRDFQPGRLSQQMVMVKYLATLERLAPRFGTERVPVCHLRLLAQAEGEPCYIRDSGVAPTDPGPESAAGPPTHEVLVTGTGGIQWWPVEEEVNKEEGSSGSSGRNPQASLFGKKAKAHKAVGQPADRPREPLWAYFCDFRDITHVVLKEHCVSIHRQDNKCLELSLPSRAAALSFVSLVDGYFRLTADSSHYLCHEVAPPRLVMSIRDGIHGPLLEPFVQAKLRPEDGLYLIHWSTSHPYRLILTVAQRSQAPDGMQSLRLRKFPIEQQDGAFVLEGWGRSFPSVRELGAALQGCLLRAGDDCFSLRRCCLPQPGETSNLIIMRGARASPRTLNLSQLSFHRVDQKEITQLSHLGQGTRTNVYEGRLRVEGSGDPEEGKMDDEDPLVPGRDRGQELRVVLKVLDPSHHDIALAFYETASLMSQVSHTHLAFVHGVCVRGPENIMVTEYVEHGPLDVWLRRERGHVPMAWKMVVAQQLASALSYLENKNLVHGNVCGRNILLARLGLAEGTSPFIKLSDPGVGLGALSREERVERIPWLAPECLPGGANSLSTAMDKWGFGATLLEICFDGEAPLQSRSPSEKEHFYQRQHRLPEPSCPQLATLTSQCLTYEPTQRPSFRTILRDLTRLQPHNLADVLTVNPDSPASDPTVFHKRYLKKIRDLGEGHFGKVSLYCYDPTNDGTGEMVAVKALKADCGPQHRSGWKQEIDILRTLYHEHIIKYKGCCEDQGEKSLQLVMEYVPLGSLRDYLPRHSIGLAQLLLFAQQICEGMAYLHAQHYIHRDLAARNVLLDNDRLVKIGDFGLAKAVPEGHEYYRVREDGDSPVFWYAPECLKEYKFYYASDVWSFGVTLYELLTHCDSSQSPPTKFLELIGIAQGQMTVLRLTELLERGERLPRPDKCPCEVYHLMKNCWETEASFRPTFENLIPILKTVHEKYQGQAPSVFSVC

O=P(O)(O)OCC1OC(n2cnc3c(NCc4ccccc4)ncnc32)C(O)C1O (stereo not shown) [IST5]
did not alter: phosphorylation of Tyk2 (TYK2; CWR22Pc cells) | phosphorylation of Tyk2 (TYK2; DU145 cells) | phosphorylation of Jak1 (JAK1; CWR22Pc cells) | phosphorylation of Jak1 (JAK1; DU145 cells)
